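Values below derive from 48-hour exposures of cells grown in 96-well plates, with endpoints linearly interpolated between the two concentrations bracketing the appropriate inhibition level. Here, GI50 denotes the concentration required for 50% inhibition of growth.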 Activity calls are given as the source filed them. Rule as the data show it: active = GI50 up to about 1.1 µM and inactive = higher.
Experiments:
Experiment in all cases: inhibition of tumour cell growth, NCI panel, 48 h
NCI-H23 = tested on: NCI-H23
A549 = tested on: A549
LOX IMVI = tested on: LOX IMVI
UACC-257 = tested on: UACC-257
HCT-116 = tested on: HCT-116
SN12C = tested on: SN12C
NCI-H522 = tested on: NCI-H522
HOP-92 = tested on: HOP-92
A498 = tested on: A498
SW-620 = tested on: SW-620
K562 = tested on: K562
MCF7 = tested on: MCF7
NCI/ADR-RES = tested on: NCI/ADR-RES
Hs-578T = tested on: Hs-578T
COLO 205 = tested on: COLO 205
OVCAR-4 = tested on: OVCAR-4
EKVX = tested on: EKVX
UO-31 = tested on: UO-31
MDA-MB-231 = tested on: MDA-MB-231

Measured: GI50

COC(=O)C(=O)C(C(=O)C(=O)Nc1cc(C)ccc1C)c1nc2ccccc2nc1O (stereo unspecified)
inactive: NCI-H23 > 100 µM | A549 85.3 µM | LOX IMVI > 100 µM | UACC-257 > 100 µM | HCT-116 > 100 µM | SN12C > 100 µM | NCI-H522 > 100 µM | HOP-92 26.7 µM | A498 > 100 µM | SW-620 > 100 µM | K562 > 100 µM | MCF7 > 100 µM | NCI/ADR-RES > 100 µM | Hs-578T 74.3 µM | COLO 205 > 100 µM | OVCAR-4 > 100 µM | EKVX 26.6 µM | UO-31 > 100 µM | MDA-MB-231 > 100 µM

CC(C)C1N(C)c2ccc(Cl)cc2[C@H]2c3ccccc3CCN12 (stereo partly specified)
inactive: NCI-H23 > 100 µM | A549 39 µM | LOX IMVI 31.6 µM | UACC-257 30.4 µM | HCT-116 40.2 µM | SN12C 45.2 µM | NCI-H522 21.9 µM | HOP-92 24.9 µM | A498 78 µM | SW-620 97.3 µM | K562 71.8 µM | MCF7 30.7 µM | NCI/ADR-RES > 100 µM | Hs-578T 25.8 µM | COLO 205 36.4 µM | OVCAR-4 69.2 µM | EKVX 28 µM | UO-31 98.4 µM | MDA-MB-231 24.4 µM

COC(=O)c1ccccc1C1CN=NC12Cc1ccc3c(c1C2=O)CCC3 (stereo unspecified)
inactive: NCI-H23 19.2 µM | A549 > 100 µM | LOX IMVI 9.04 µM | UACC-257 44.1 µM | HCT-116 39.3 µM | SN12C > 100 µM | NCI-H522 6.55 µM | HOP-92 23.1 µM | A498 55.2 µM | SW-620 > 100 µM | K562 7.23 µM | MCF7 34.9 µM | NCI/ADR-RES 19.5 µM | Hs-578T 74.3 µM | COLO 205 > 100 µM | OVCAR-4 > 100 µM | EKVX > 100 µM | UO-31 68.5 µM | MDA-MB-231 75.5 µM

Cc1nc(C)c(N2CCN(C(=O)NC(CCC(=O)O)C(=O)O)CC2)c(O)n1 (stereo unspecified)
inactive: NCI-H23 > 100 µM | A549 > 100 µM | LOX IMVI > 100 µM | UACC-257 > 100 µM | HCT-116 > 100 µM | SN12C > 100 µM | NCI-H522 > 100 µM | HOP-92 > 100 µM | A498 > 100 µM | SW-620 > 100 µM | K562 > 100 µM | MCF7 > 100 µM | NCI/ADR-RES > 100 µM | Hs-578T > 100 µM | COLO 205 > 100 µM | OVCAR-4 > 100 µM | EKVX > 100 µM | UO-31 > 100 µM | MDA-MB-231 > 100 µM

N#CC1(O)CCCCCCCCCCC1
inactive: NCI-H23 > 100 µM | A549 > 100 µM | LOX IMVI > 100 µM | UACC-257 > 100 µM | HCT-116 > 100 µM | SN12C > 100 µM | NCI-H522 48.8 µM | HOP-92 > 100 µM | A498 > 100 µM | SW-620 > 100 µM | K562 > 100 µM | MCF7 > 100 µM | NCI/ADR-RES > 100 µM | Hs-578T > 100 µM | COLO 205 > 100 µM | OVCAR-4 > 100 µM | EKVX > 100 µM | UO-31 > 100 µM | MDA-MB-231 > 100 µM

[N-]=[N+]=Nc1ccc2c(c1)Sc1ccccc1N2CCCCN1CCN(Cc2ccc(C(=O)c3ccccc3)cc2)CC1
inactive: NCI-H23 6.49 µM | A549 > 92.5 µM | LOX IMVI 1.76 µM | UACC-257 2.04 µM | HCT-116 3.43 µM | SN12C > 25.3 µM | NCI-H522 1.85 µM | HOP-92 2.29 µM | A498 17.4 µM | SW-620 6.22 µM | K562 3.23 µM | MCF7 2.64 µM | NCI/ADR-RES 3.68 µM | Hs-578T 16.3 µM | COLO 205 1.79 µM | OVCAR-4 4.6 µM | EKVX 6.67 µM | UO-31 2.51 µM | MDA-MB-231 3.11 µM

CCn1c(SCc2nnc(Nc3ccccc3)s2)nc2ccccc2c1=O
inactive: NCI-H23 4.7 µM | A549 3.67 µM | LOX IMVI 5.02 µM | UACC-257 11.8 µM | HCT-116 1.95 µM | SN12C 4.23 µM | NCI-H522 2.09 µM | HOP-92 2.57 µM | A498 1.67 µM | SW-620 16.8 µM | K562 19.8 µM | MCF7 9.93 µM | NCI/ADR-RES 2.59 µM | Hs-578T 2.39 µM | COLO 205 16.1 µM | OVCAR-4 1.82 µM | EKVX 3.56 µM | UO-31 3.08 µM | MDA-MB-231 3.18 µM

CC(N)(CC(O)(C(F)(F)Cl)C(F)(F)Cl)C(=O)O (stereo unspecified)
inactive: NCI-H23 > 10 µM | A549 > 10 µM | LOX IMVI > 10 µM | UACC-257 > 10 µM | HCT-116 > 10 µM | SN12C > 10 µM | NCI-H522 > 10 µM | HOP-92 > 10 µM | A498 > 10 µM | SW-620 > 10 µM | K562 > 10 µM | MCF7 > 10 µM | NCI/ADR-RES > 10 µM | Hs-578T > 10 µM | COLO 205 > 10 µM | OVCAR-4 > 10 µM | EKVX > 10 µM | UO-31 > 10 µM | MDA-MB-231 > 10 µM

CC(C)NC(=O)OCc1c(COC(=O)NC(C)C)c(-c2cc[n+](COC(=O)C3CC3)cc2)n2c1CCC2
inactive: NCI-H23 > 100 µM | A549 > 100 µM | LOX IMVI > 100 µM | UACC-257 > 100 µM | HCT-116 > 100 µM | SN12C > 100 µM | NCI-H522 > 100 µM | HOP-92 > 100 µM | A498 79.3 µM | SW-620 > 100 µM | K562 > 100 µM | MCF7 > 100 µM | NCI/ADR-RES > 100 µM | Hs-578T > 100 µM | COLO 205 > 100 µM | OVCAR-4 > 100 µM | EKVX > 100 µM | UO-31 > 100 µM | MDA-MB-231 > 100 µM

c1cncc(-c2ncc3cccnc3n2)c1
inactive: NCI-H23 > 100 µM | A549 > 100 µM | LOX IMVI > 100 µM | UACC-257 > 100 µM | HCT-116 > 100 µM | SN12C > 100 µM | NCI-H522 > 100 µM | HOP-92 > 100 µM | A498 > 100 µM | SW-620 > 100 µM | K562 > 100 µM | MCF7 > 100 µM | NCI/ADR-RES > 100 µM | Hs-578T > 100 µM | COLO 205 > 100 µM | OVCAR-4 > 100 µM | EKVX > 100 µM | UO-31 > 100 µM | MDA-MB-231 > 100 µM

CC(=O)OCC1OC(n2c(C#N)cc(=O)[nH]c2=O)CC1OC(C)=O (stereo unspecified)
inactive: NCI-H23 > 100 µM | A549 > 100 µM | LOX IMVI > 100 µM | UACC-257 > 100 µM | HCT-116 > 100 µM | SN12C > 100 µM | NCI-H522 > 100 µM | HOP-92 > 100 µM | A498 > 100 µM | SW-620 > 100 µM | K562 > 100 µM | MCF7 > 100 µM | NCI/ADR-RES > 100 µM | Hs-578T > 100 µM | COLO 205 > 100 µM | OVCAR-4 > 100 µM | EKVX > 100 µM | UO-31 > 100 µM | MDA-MB-231 > 100 µM

O=C(O)c1ccccc1CC(Cc1ccc2c(c1)CCC2)C(=O)O (stereo unspecified)
inactive: NCI-H23 > 100 µM | A549 > 100 µM | LOX IMVI > 100 µM | UACC-257 > 100 µM | HCT-116 > 100 µM | SN12C > 100 µM | NCI-H522 > 100 µM | HOP-92 > 100 µM | A498 > 100 µM | SW-620 > 100 µM | K562 > 100 µM | MCF7 > 100 µM | NCI/ADR-RES > 100 µM | Hs-578T > 100 µM | COLO 205 > 100 µM | OVCAR-4 > 100 µM | EKVX > 100 µM | UO-31 > 100 µM | MDA-MB-231 > 100 µM

O=C(O)C1C(C(=O)Nc2ccc3c(c2)Cc2ccccc2-3)C2(Cl)C(Cl)=C(Cl)C1(Cl)C2(Cl)Cl (stereo unspecified)
inactive: NCI-H23 17.5 µM | A549 33.3 µM | LOX IMVI 18.4 µM | UACC-257 20.6 µM | HCT-116 18.7 µM | SN12C 33.3 µM | NCI-H522 18.6 µM | HOP-92 21.5 µM | A498 19.4 µM | SW-620 25.6 µM | K562 2.6 µM | MCF7 22.5 µM | NCI/ADR-RES 36.6 µM | Hs-578T 19.9 µM | COLO 205 17.6 µM | OVCAR-4 27.7 µM | EKVX 34.4 µM | UO-31 22.5 µM | MDA-MB-231 20.2 µM

Brc1cccc(Nc2nc(-c3cccs3)nc3ccc(Br)cc23)c1
inactive: NCI-H23 36.9 µM | A549 29.5 µM | LOX IMVI 31.3 µM | UACC-257 26.6 µM | HCT-116 30.5 µM | SN12C 22.7 µM | NCI-H522 19 µM | HOP-92 19.6 µM | A498 31.7 µM | SW-620 26.9 µM | K562 38.2 µM | MCF7 14.2 µM | NCI/ADR-RES 30.7 µM | Hs-578T 38.8 µM | COLO 205 33 µM | OVCAR-4 27.8 µM | EKVX 15 µM | UO-31 47 µM | MDA-MB-231 20.7 µM

— ChEMBL document CHEMBL1201862, “PubChem BioAssay data set” (2004)
